# Assay results as given in patent US10512667B2, “Compositions and methods for treating conditions related to adrenocortical activity and/or excessive steroid production” (The Regents of the University of Michigan, priority 2017, dated 2019).
# Entries after “also recorded” stand apart in the source; their conditions may differ.
# Tests used:
# [1] = system: ACAT; settings: cited from earlier work
# [2] = system: H295R cells; experiment: Visualization of cholesterol levels by filipin III binding; format: cell-based; settings: H295R cells
# Description: (§1) The cells were seeded in 96-well ibiTreat μ-Plates and allowed to adhere for 48 h prior to the start of each experiment. Cholesterol was detected in fixed cells by incubating with 100 μg/ml filipin III at 37 C for 2 h. […] Images were captured using either a 4× or a 60× objective. Cholesterol esterification was visualized by culturing the cells with 1 μM NBD-cholesterol for 2 h following incubation with the indicated compounds. […] Images were captured using either a 20× or a 60× objective.
# (§2) The medium was removed and immediately replaced with 100 μl of 4% paraformaldehyde and the cells were fixed at room temperature for 20 min. The cells were washed twice with 200 μl PBS. […] The fixed cells were incubated with filipin III at 37 C in the dark for 2 h.
# [3] = system: BD140C cells; experiment: as above; format: cell-based; settings: 4 h
# Description: as §1, §2
# [4] = system: H295R cells; experiment: Caspase 3/7 activity (Apo-ONE); format: cell-based; settings: H295R cells; for caspase 3/7 activity, compound alone: serum-containing medium
# Description: (§3) The samples were incubated for 18 h at room temperature in the dark. The fluorescence was measured using a SpectraMax M5 microplate reader with a 0.5 s acquisition time.
# [5] = system: BD140C cells; experiment: Caspase 3/7 activity (Apo-ONE); format: cell-based
# Description: as §3
# [6] = system: H295R cells; experiment: Cholesterol efflux into serum-free medium with apoA1; format: cell-based; settings: serum-free medium containing apoA-I, 4 h
# Description: Cholesterol efflux was measured by replacing the culture medium with serum-free medium supplemented with 5 μg/ml apoA1 (Sigma) and the indicated compounds. After the indicated time, the serum-free medium was collected, and the cholesterol concentration was measured using the fluorometric enzyme-linked assay (Cayman Chemical).
# After 48 h, the medium was removed and replaced with 50 μl serum-free medium supplemented with 5 μg/mL apoA1. After the indicated time, the supernatant containing the effluxed cholesterol, was transferred to a new 96-well plate. A cholesterol detection reagent (Cayman Chemical) consisting of cholesterol assay buffer, cholesterol assay detector (10-acetyl-3,7-dihydroxyphenoxazine [ADHP]), horseradish peroxidase, cholesterol oxidase, and cholesterol esterase was added, and the reactions were incubated for 30 min at 37 C. The fluorescence intensities were measured using ex. […] 590 nm. The cholesterol concentrations were calculated by interpolation between the values produced by cholesterol standards that were analyzed in parallel.
# [7] = system: ABCG1; experiment: Transcript measurement by qPCR in H295R cells; format: cell-based; settings: 4 h, hydrochloride
# Description: (§4) mRNA was isolated (Qiagen), and was reverse transcribed using the Transcriptor First Strand cDNA synthesis kit (Roche). The relative amounts of cDNAs corresponding to the indicated transcripts were quantified using qPCR assays with specific primers (Table 2).
# (§5) H295R cells were seeded in 6-well tissue culture plates (Corning #3506) at a density of 5 X105 per well. After 48 h, the compound(s) indicated were added, and the cells were cultured for the indicated time. The cells were harvested in 1.35 ml culture medium with trypsin. The cells were collected by centrifugation and lysed in 350 μl of RLT buffer (Qiagen) with β-mercaptoethanol. mRNA extraction and DNase treatment were performed according to the manufacturer's protocol (Qiagen). All RNA samples had 260/280 ratios greater than 1.5. The same amount of RNA ranging from 0.1 to 0.5 μg was used for reverse transcription using the Roche Transcriptor First Strand cDNA synthesis kit (Roche #04897030001) using the manufacturer's protocol. SYBR Green I-based real-time qPCR assays were performed using a Roche LightCycler480 instrument. The levels of transcripts in different samples were normalized by the levels of RPL9 transcripts.
# [8] = system: ABCA1; experiment: Transcript measurement by qPCR in H295R cells; format: cell-based; settings: 4 h, hydrochloride
# Description: as §4, §5
# [9] = system: CHOP; experiment: Transcript measurement by qPCR in H295R cells; format: cell-based; settings: 4 h
# Description: as §4, §5
# [10] = system: adrenal cortex; settings: in vivo; cited from earlier work
# [11] = system: H295R cells; experiment: Cellular ATP level (CellTiter-Glo); settings: H295R cells, serum-containing medium;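 also: ATP quantified by luminescence after lysing the cells in CellTiter-Glo reagent, with compound exposure at 37 °C under 5% CO2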
# Description: (§8) The ATP levels of cells were measured by lysis in CellTiter-Glo reagent (Promega), and measurement of the luminescence.
# (§9) After 48 h, 20-80 μl of medium was removed from each well and replaced with 20 μl of each compound diluted to 6× of the final concentration in the culture medium to produce a final volume of 120 μl. The cells were incubated at 37 C in 5% CO2 atmosphere for a time ranging from 15 min to 24 h. The medium was removed and immediately replaced with 50 μl of CellTiter-Glo luminescence cell viability assay reagent (Promega). The cells were lysed by agitation at room temperature for 20 min in the dark. The luminescence was measured using a SpectraMax M5 microplate reader (Molecular Devices) with a 0.5 s acquisition time. The luminescence (RLU) values for control cells ranged from 5000 to 20000 RLU in all experiments, and were scaled by a factor of 0.001 to plot all graphs.
# [12] = system: H295R cells; experiment: Visualization of NBD-cholesterol esterification; format: cell-based; settings: compound 2 h then 2 h with NBD-cholesterol, hydrochloride
# Description: (§6) The cells were seeded in 96-well ibiTreat μ-Plates and allowed to adhere for 48 h prior to the start of each experiment. Cholesterol was detected in fixed cells by incubating with 100 μg/ml filipin III at 37 C for 2 h. The bound filipin III was imaged by fluorescence microscopy using 377/11 nm excitation and 447/60 nm emission wavelengths. Images were captured using either a 4× or a 60× objective. Cholesterol esterification was visualized by culturing the cells with 1 μM NBD-cholesterol for 2 h following incubation with the indicated compounds. NBD-cholesterol esters were imaged by fluorescence microscopy using 485/20 nm excitation wavelengths. Images were captured using either a 20× or a 60× objective.
# (§7) The cells were seeded in 96-well ibiTreat μ-Plates (Ibidi) in 100 μl at a density of 50,000 cells per well. […] 5 μl of NBD-cholesterol was added to each well to produce a final concentration of 1 μM. When NBD-cholesterol is esterified and localized to cytoplasmic lipid droplets, it produces bright fluorescent foci in the cell. The inhibition of ACAT activity prevents fluorescent focus formation by NBD-cholesterol (see, e.g., Lada, et al., 2004 J Lipid Res, 45, 378-86). After 1.5 h, 5 μl of Hoechst 33342 was added to each well to produce a final concentration of 3 μg/ml. After 30 min, the medium was replaced with fresh medium. NBD-cholesterol esterification was visualized by fluorescence microscopy using either 485/20 nm (NBD) or 387/11 nm (Hoechst) excitation wavelengths and images were captured using either a 60× oil objective or a 20× objective.
# [13] = system: BD140C cells; experiment: Visualization of NBD-cholesterol esterification; format: cell-based; settings: compound 2 h then 2 h with NBD-cholesterol
# Description: as §6, §7
# [14] = system: H295R cells; experiment: Cortisol secretion (indirect ELISA); format: cell-based; settings: cortisol in medium, 4 h or time course
# Description: Cortisol secretion was measured by replacing the culture medium with fresh medium containing the indicated compounds. The medium was collected at the indicated times. The cortisol concentration in the medium was measured using indirect ELISA (Arbor Assays).
# After 48 h, the medium was removed and replaced with 50 μl of fresh medium. After the indicated incubation time, aliquots of the supernatant ranging from 0.5 to 10 μl were diluted in 50 μl of medium were used to measure the amount of cortisol secreted. Cortisol detection and quantification were performed by indirect ELISA according to the manufacturer's protocol (Arbor Assays #K003).
# [15] = system: BD140C cells; experiment: Cellular ATP level (CellTiter-Glo); format: cell-based
# Description: as §8, §9
# [16] = serum-free, 50 μM each glibenclamide, benzamil, zosuquidar, 10 μM PD129337, 4 mM MβCD
smiles,measurement,setting,value
"CC(C)c1cccc(C(C)C)c1NC(=O)NCC1(c2ccccc2)CCCC1.Cl [PD129337, N-(2,6-bis(1-methylethyl)phenyl)-N′-((1-(phenyl)cyclopentyl)methyl)urea hydrochloride]",ACAT activity,[1],inhibit ACAT activity
same,"cholesterol level / accumulation (filipin III binding), compound alone","[2]; serum-containing medium, up to 4 h",did not cause cholesterol accumulation
same,cholesterol level with combinations of ABC transporter inhibitors,[2]; [16],further increased the cholesterol level
same,"cholesterol level / accumulation (filipin III binding), compound alone",[3],did not cause cholesterol accumulation
same,"caspase 3/7 activity, compound alone",[4]; 4 h,did not cause ATP depletion or caspase activation
same,"caspase 3/7 activity, compound alone","[4]; 24 h, hydrochloride",did not reduce the ATP level or increase the caspase 3/7 activity; also recorded: no detectable effect
same,caspase 3/7 activity with combinations of ABC transporter inhibitors,[4]; [16],did not enhance ATP depletion or caspase 3/7 activation
same,"caspase 3/7 activity, compound alone",[5]; 4 h,did not cause ATP depletion or caspase activation
same,"caspase 3/7 activity, compound alone","[5]; 24 h, hydrochloride",did not reduce the ATP level or increase the caspase 3/7 activity; also recorded: no detectable effect
same,"cholesterol efflux, compound alone",[6],no detectable effect on cholesterol efflux
same,ABCG1 transcript level,[7],inhibited; also recorded: equivalent effects
same,ABCA1 transcript level,[8],inhibited; also recorded: equivalent effects
same,CHOP transcript level,[9],activated
same,adrenalytic activity,[10],only ATR-101 has adrenalytic activity
same,"ATP level, compound alone",[11]; 4 h,did not cause ATP depletion
same,"ATP level, compound alone","[11]; 24 h, hydrochloride",did not reduce the ATP level; also recorded: no detectable effect
same,NBD-cholesterol esterification and accumulation in lipid droplets,[12],inhibited cholesterol esterification more efficiently than ATR-101; also recorded: inhibited NBD-cholesterol accumulation more effectively than ATR-101; also recorded: eliminated both the intense foci and the diffuse fluorescence
same,NBD-cholesterol esterification and accumulation in lipid droplets,[13],inhibited NBD-cholesterol esterification
same,"cortisol secretion, compound alone",[14],"did not reduce, but rather increased, cortisol secretion"
same,"ATP level, compound alone",[15]; 4 h,did not cause ATP depletion
same,"ATP level, compound alone","[15]; 24 h, hydrochloride",did not reduce the ATP level; also recorded: no detectable effect
